The values that follow come from patent publication US20120214760A1, “TREATMENT OF URINARY TRACT INFECTIONS WITH ANTIBACTERIAL AMINOGLYCOSIDE COMPOUNDS” (Achaogen, Inc., priority 2009, published 2012).

The subject of test [1] is P. aeruginosa ATCC 27853 (APAE001). As to the kind of experiment: MIC, CLSI broth microdilution. Type of test: cell-based. Particulars: Pseudomonas aeruginosa, ATCC27853; Table 2; read-out: MIC P. aeruginosa. The method, boiled down: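 CLSI M7-A7 broth microdilution; 2-fold serial dilutions in Mueller Hinton Broth, 1:1 with inoculum; final 5×10^5 CFU/mL; 35° C., 20 h, ambient air. QC strains E. coli ATCC 25922, P. aeruginosa ATCC 27853, S. aureus ATCC 29213.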
Background: In broth dilution the organism is exposed to a series of concentrations in liquid medium.

The test system of another test is Pathogens (169 in total). As to the kind of experiment: Susceptibility testing, all urinary tract infection isolates. Particulars: all isolates. Type of test: cell-based. As for the experimental part:
(§1) Minimum inhibitory concentrations (MIC) were determined by reference Clinical and Laboratory Standards Institute (CLSI) broth microdilution methods per M7-A7 [2006]. Quality control ranges utilizing E. coli ATCC 25922, P. aeruginosa ATCC 27853 and S. aureus ATCC 29213, and interpretive criteria for comparator agents were as published in CLSI M100-S17 [2007]. Briefly, serial two-fold dilutions of the test compounds were prepared at 2× concentration in Mueller Hinton Broth. The compound dilutions were mixed in 96-well assay plates in a 1:1 ratio with bacterial inoculum. The inoculum was prepared by suspension of a colony from an agar plate that was prepared the previous day. Bacteria were suspended in sterile saline and added to each assay plate to obtain a final concentration of 5×10^5 CFU/mL. The plates were incubated at 35° C. for 20 hours in ambient air.
In order to determine the activity of representative antibacterial aminoglycoside compounds against bacterial species that commonly cause complicated urinary tract infections worldwide, isolates were collected from 47 medical centers in the U.S. and Europe (10 countries) from urine or blood culture with the source of bacteremia documented as a urinary tract infection. Strains were susceptibility tested against Example 1, gentamicin, amikacin and 10 comparators by CLSI broth microdilution. These MIC assays were conducted following the same protocol as set forth in Example 110. Pathogens (169 in total) included E. coli, Klebsiella spp., Enterobacter spp., Citrobacter spp., P. mirabilis, M. Morganii, P. aeruginosa, S. aureus and S. saprophyticus.

Another test relates to seven bacterial strains. As to the kind of experiment: Murine neutropenic thigh model, all strains. Type of test: in vivo. As for the experimental part:
The in vivo activity of Example 1 in the mouse neutropenic thigh model (Andes and Craig. Antimicrob Agents Chemother. 2002, 46:1665-1670) was determined against seven bacterial strains including susceptible Escherichia coli and Klebsiella pneumoniae; multi-drug resistant (MDR) clinical isolates of E. coli and K. pneumoniae that display resistance to multiple antibiotics (including AGs); MRSA; and two K. pneumoniae carbapenemases (KPC)-expressing strains (see Table 5). For this efficacy model, groups of six CD-1 mice were rendered neutropenic by two intraperitoneal injections of cyclophosphamide. The first injection was 150 mg/kg three days prior to infection (day −4), and the second injection was 100 mg/kg one day prior to infection (day −1). On study day 0, animals were inoculated intramuscularly (0.1 ml) with a known number of colony forming units (CFU) of the specified bacterial strain (ATCC 25922, AECO 1003, ATCC 43816, AKPN 1073, AKPN 1109, ATCC 33591 or ASMA 1030), tailored to the virulence of each strain in the model to maximize bacterial load while avoiding mortality in the untreated control arms. Antibiotics were administered via subcutaneous injection at 2 and 14 hours after bacterial challenge. At 26 hours, infected thigh tissue was harvested, homogenized, and plated to count CFU. […]

Test [2] relates to E. coli AECO040, AAC(6′)-I. Put plainly: MIC, aminoglycoside resistant strain. Type of test: cell-based. Particulars: Table 3. As to the method:
as §1
(§2) These MIC assays were conducted following the same protocol as set forth in Example 110. As shown, substituted sisomicin derivatives with groups other than methyl at the 6′-position have improved activity against strains expressing the AAC6′-modifying enzymes.

The test system of test [3] is A. calcoaceticus AACA005, AAC(6′)-I. Put plainly: MIC, aminoglycoside resistant strain. Type of test: cell-based. The note with it: Table 3. As to the method:
as §1, §2

In test [4] the test system is S. marcescens ASMA003, ANT(2″) + AAC(6′). Put plainly: MIC, aminoglycoside resistant strain. Type of test: cell-based. The note with it: Table 3. As to the method:
as §1, §2

Test [5] relates to K. pneumoniae ATCC 43816, Susceptible. Put plainly: MIC of thigh model strain. Particulars: Klebsiella pneumoniae, ATCC43816; Table 5; K. pneumoniae Susceptible ATCC 43816. Type of test: cell-based. As for the experimental part:
as §1

The subject of test [6] is S. marcescens ASMA 1030, KPC. Put plainly: MIC of thigh model strain. The format is cell-based. The note with it: Serratia marcescens; Table 5; S. marcescens KPC ASMA 1030. As to the method: as §1
Test [7] deals with S. aureus ATCC 33591, MRSA. Put plainly: MIC of thigh model strain. Particulars: Staphylococcus aureus; Table 5; S. aureus MRSA ATCC 33591; read-out: MIC. The format is cell-based. As to the method:
as §1

Test [8] relates to K. pneumoniae AKPN 1109, KPC. Put plainly: MIC of thigh model strain. The format is cell-based. The note with it: Klebsiella pneumoniae; Table 5; K. pneumoniae KPC AKPN 1109. As for the experimental part:
as §1

For test [9], the system named is K. pneumoniae AKPN 1073, MDR. Put plainly: MIC of thigh model strain. The format is cell-based. Particulars: Klebsiella pneumoniae; Table 5; K. pneumoniae MDR AKPN 1073. As for the experimental part: as §1
The test system of another test is E. coli AECO 1003, MDR. Put plainly: MIC of thigh model strain. Type of test: cell-based. The note with it: Escherichia coli; Table 5; E. coli MDR AECO 1003; read-out: MIC. As to the method:
as §1

Converted amounts (≈) assume the structure as drawn.

Regarding `CN[C@@H]1[C@@H](O)[C@@H](O[C@@H]2[C@@H](O)[C@H](O[C@H]3OC(CNCCO)=CC[C@H]3N)[C@@H](N)C[C@H]2NC(=O)[C@@H](O)CCN)OC[C@]1(C)O` [Example 1, 6′-(2-Hydroxy-ethyl)-1-(4-amino-2(S)-hydroxy-butyryl)-sisomicin], the MIC – broadly, the smallest concentration in the dilution series that meets the test's criterion for growth inhibition – in test [1] was 1 to 16 µg/mL (≈ 1.69 to 27 µM); in [5], 0.5 µg/mL; in [6], 1 µg/mL; in [7], 4 to 8 µg/mL; in test [8], 0.25 to 0.5 µg/mL; in test [9], 0.5 µg/mL. In the test with E. coli AECO 1003, MDR, the MIC turned out to be 1 µg/mL. Also, the “% of strains inhibited” value came to 90.5% in the test on Pathogens (169 in total) (at ≦4 μg/ml) and 98.8% in the test with Pathogens (169 in total) (at ≦16 μg/ml). For the same compound, in the test on seven bacterial strains (all 7 strains), the “bacterial titers versus initial bacterial load (static level)” value was “reducing bacterial titers back to or below the initial bacterial load”. The “in vivo efficacy in words” value in the test on seven bacterial strains (gentamicin resistant strains) is given as “efficacious”. The compound also showed an MIC AECO040 in [2] of 0.5 µg/mL (≈ 0.844 µM). Also, the MIC AACA005 in [3] was 2 µg/mL (≈ 3.37 µM). For the same compound, in [4], the MIC ASMA003 is 2 µg/mL (≈ 3.37 µM).
